Positions of bridges follow the written chain, without caps; N, C: chain ends. Non-standard residues stand in square brackets, D forms with d. Residues, ends and D or L forms follow the SMILES beside them. ξ: configuration not given here. *: point of attachment. Phe(4-COOH) = N[C@@H](Cc1ccc(C(=O)O)cc1)C(=O)O; Bip = N[C@@H](Cc1ccc(-c2ccccc2)cc1)C(=O)O; Phe(3-Me) = Cc1cccc(C[C@H](N)C(=O)O)c1; Val(3-OH) = CC(C)(O)[C@H](N)C(=O)O; NMeF = CN[C@@H](Cc1ccccc1)C(=O)O; 4Pal = N[C@@H](Cc1ccncc1)C(=O)O; dTic = O=C(O)[C@H]1Cc2ccccc2CN1; Cha = N[C@@H](CC1CCCCC1)C(=O)O; dPip = O=C(O)[C@H]1CCCCN1; Carboxymethyl = O=C(O)C*; NMeA = CN[C@@H](C)C(=O)O; Orn = NCCC[C@H](N)C(=O)O; Dab = NCC[C@H](N)C(=O)O; Dap = NC[C@H](N)C(=O)O; ξV = CC(C)C(N)C(=O)O; Sar = CNCC(=O)O
Target: T1, human PD-1 (Jurkat-PD-1 cells) / PE-labeled human PD-L1-Ig (Homo sapiens, UniProt Q15116)
T1 construct: expressed in transfected cells; host or cells: Jurkat cell line over-expressing human PD-1
Experiment: Jurkat-PD-1 Cell Binding High-Content Screening Assay (CBA); Jurkat hPD1-PDL1 assay
Details: Jurkat cell line over-expressing human PD-1; PE-labeled PD-L1-Ig 20 nM final; compound incubated 2 hours at 37° C.; read-out: Jurkat HPD1-PDL1 IC50
In short: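 Jurkat cells over-expressing human PD-1, seeded in DMEM with 10% fetal calf serum, were preincubated with compound for 2 hours at 37° C. PE-labeled human PD-L1-Ig was then added at 20 nM final, and cell-bound fluorescence was read by high-content imaging.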

T1 sequence (Q15116 25-288): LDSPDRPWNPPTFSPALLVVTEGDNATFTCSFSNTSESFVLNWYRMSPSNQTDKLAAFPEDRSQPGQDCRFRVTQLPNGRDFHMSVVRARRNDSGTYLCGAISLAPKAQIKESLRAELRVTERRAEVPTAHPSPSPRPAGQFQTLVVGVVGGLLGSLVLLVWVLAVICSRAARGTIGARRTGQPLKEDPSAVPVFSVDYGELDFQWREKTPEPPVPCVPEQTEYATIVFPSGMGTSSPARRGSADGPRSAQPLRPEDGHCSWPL

SMILES | IC50 [nM]
CC(C)C[C@@H]1NC(=O)[C@H](Cc2c[nH]c3ccccc23)NC(=O)[C@H](CC(=O)O)NC(=O)[C@H](Cc2ccc(O)cc2)NC(=O)[C@H](Cc2ccccc2)NC(=O)CSC[C@@H](C(=O)N[C@@H](C)C(N)=O)NC(=O)[C@H](CO)NC(=O)[C@H](C(C)C)NC(=O)[C@H](CC2CCCCC2)NC(=O)[C@H](CC(N)=O)NC(=O)CN(C)C(=O)[C@H](C)N(C)C(=O)[C@H](C(C)C)NC(=O)[C@H](Cc2ccc(-c3ccccc3)cc2)NC1=O [Example 1093] ({CH2CO}-FYDWL[Bip]V[NMeA][Sar]N[Cha]VSCA-NH2; thioether N-14) | 270
CC(C)C[C@@H]1NC(=O)[C@H](CCCNC(=N)N)NC(=O)[C@H](Cc2ccccc2)N(C)C(=O)[C@H](C)N(C)C(=O)[C@H](CCCNC(=N)N)NC(=O)[C@H](Cc2ccc(-c3ccccc3)cc2)NC(=O)[C@H](C(C)C)NC(=O)[C@H](Cc2c[nH]c3ccccc23)NC(=O)[C@H](CC(=O)O)NC(=O)[C@H](Cc2ccc(O)cc2)NC(=O)[C@H](Cc2ccccc2)N(C)C(=O)CSC[C@@H](C(=O)NCC(N)=O)NC(=O)[C@H](CO)NC(=O)[C@H](C(C)C)NC1=O [Example 1250] ({CH2CO}-[NMeF]YDWV[Bip]R[NMeA][NMeF]RLVSCG-NH2; thioether N-14) | 320
Cc1cccc(C[C@@H]2NC(=O)[C@H](CC(=O)O)NC(=O)[C@H](Cc3ccc(OCC(=O)O)cc3)NC(=O)[C@H](Cc3ccncc3)NC(=O)CSC[C@@H](C(=O)N[C@@H](CCN)C(N)=O)NC(=O)[C@H](CO)NC(=O)[C@H](C(C)(C)O)NC(=O)[C@H](CC3CCCCC3)NC(=O)[C@H](CCN)NC(=O)[C@H]3CCCN3C(=O)[C@H](C)N(C)C(=O)[C@H](Cc3ccc(OCC(=O)O)cc3)NC(=O)[C@H](Cc3ccc(-c4ccccc4)cc3)NC(=O)[C@H](Cc3ccc(C(=O)O)cc3)NC2=O)c1 [Example 1178] ({CH2CO}-[4Pal]Y(Carboxymethyl)D[Phe(3-Me)][Phe(4-COOH)][Bip]Y(Carboxymethyl)[NMeA][dP][Dab][Cha][Val(3-OH)]SC[Dab]-NH2; thioether N-14) | 70
CC(C)C[C@@H]1NC(=O)[C@H](Cc2c[nH]c3ccccc23)NC(=O)[C@H](CC(=O)O)NC(=O)[C@H](Cc2ccc(O)cc2)NC(=O)[C@H](Cc2ccccc2)NC(=O)CSC[C@@H](C(=O)NCC(N)=O)NC(=O)[C@H]([C@@H](C)O)NC(=O)[C@H](C(C)C)NC(=O)[C@H](CC(C)C)NC(=O)[C@H](CC(N)=O)NC(=O)[C@H]2CCCN2C(=O)[C@H](CCN)NC(=O)[C@H](C(C)C)NC(=O)[C@H](Cc2ccc(-c3ccccc3)cc2)NC1=O [Example 1411] ({CH2CO}-FYDWL[Bip]V[Dab][dP]NLVTCG-NH2; thioether N-14) | 440
CC(C)C[C@@H]1NC(=O)[C@H](Cc2c[nH]c3ccccc23)NC(=O)[C@H](CC(=O)O)NC(=O)[C@H](Cc2ccc(O)cc2)NC(=O)[C@H](CN)NC(=O)CSC[C@@H](C(=O)N[C@@H](C)C(N)=O)NC(=O)[C@H](CO)NC(=O)[C@H](C(C)C)NC(=O)[C@H](CC(C)C)NC(=O)[C@H](CC(N)=O)NC(=O)[C@H]2CCCN2C(=O)[C@H](C)N(C)C(=O)[C@H](C(C)C)NC(=O)[C@H](Cc2ccc(-c3ccccc3)cc2)NC1=O [Example 1394] ({CH2CO}-[Dap]YDWL[Bip]V[NMeA][dP]NLVSCA-NH2; thioether N-14) | 90
CC(C)C[C@@H]1NC(=O)[C@H](CCCNC(=N)N)NC(=O)[C@H](Cc2ccccc2)N(C)C(=O)[C@H](C)N(C)C(=O)[C@H](CCCNC(=N)N)NC(=O)[C@H](Cc2ccc(-c3ccccc3)cc2)NC(=O)[C@H](C(C)C)NC(=O)[C@H](Cc2c[nH]c3ccccc23)NC(=O)[C@H](CC(=O)O)NC(=O)[C@H](Cc2cnc[nH]2)NC(=O)[C@H](Cc2ccccc2)NC(=O)CSC[C@@H](C(=O)NCC(N)=O)NC(=O)[C@H](CO)NC(=O)[C@H](C(C)C)NC1=O [Example 1249] ({CH2CO}-FHDWV[Bip]R[NMeA][NMeF]RLVSCG-NH2; thioether N-14) | 270
CC(C)C1NC(=O)[C@H](Cc2c[nH]c3ccccc23)NC(=O)[C@H](CC(=O)O)NC(=O)[C@H](Cc2ccc(O)cc2)NC(=O)[C@H](CC(N)=O)NC(=O)CSC[C@@H](C(=O)N[C@@H](C)C(N)=O)NC(=O)[C@H]([C@@H](C)O)NC(=O)[C@H](C(C)C)NC(=O)[C@H](CC2CCCCC2)NC(=O)[C@H](CCN)NC(=O)[C@H](Cc2ccccc2)N(C)C(=O)[C@H](CCCN)NC(=O)[C@H](CCC(=O)O)NC(=O)[C@H](Cc2ccc(-c3ccccc3)cc2)NC1=O (stereo partly drawn) [Example 1441] ({CH2CO}-NYDW[ξV][Bip]E[Orn][NMeF][Dab][Cha]VTCA-NH2; thioether N-14) | 60
CC(C)C[C@@H]1NC(=O)CSC[C@@H](C(=O)NCC(N)=O)NC(=O)[C@H]([C@@H](C)O)NC(=O)[C@H](C(C)C)NC(=O)[C@H](CC(C)C)NC(=O)[C@H](CCCNC(=N)N)NC(=O)[C@H](Cc2ccccc2)N(C)C(=O)[C@H](C)N(C)C(=O)[C@H](CCCNC(=N)N)NC(=O)[C@H](Cc2ccc(-c3ccccc3)cc2)NC(=O)[C@H](C(C)C)NC(=O)[C@H](Cc2c[nH]c3ccccc23)NC(=O)[C@H](CC(=O)O)NC(=O)[C@H](Cc2ccc(O)cc2)NC1=O [Example 1312] ({CH2CO}-LYDWV[Bip]R[NMeA][NMeF]RLVTCG-NH2; thioether N-14) | 760
CC(C)C[C@@H]1NC(=O)[C@H](CCCNC(=N)N)NC(=O)[C@H](Cc2ccccc2)N(C)C(=O)[C@H](C)N(C)C(=O)[C@H](C(C)C)NC(=O)[C@H](Cc2ccc(-c3ccccc3)cc2)NC(=O)[C@H](C(C)C)NC(=O)[C@H](Cc2c[nH]c3ccccc23)NC(=O)[C@H](CC(=O)O)NC(=O)[C@H](Cc2ccc(O)cc2)NC(=O)[C@H](Cc2ccccc2)NC(=O)CSC[C@@H](C(=O)N[C@@H](C)C(N)=O)NC(=O)[C@H](CO)NC(=O)[C@H](C(C)C)NC1=O [Example 1115] ({CH2CO}-FYDWV[Bip]V[NMeA][NMeF]RLVSCA-NH2; thioether N-14) | 400
CC(C)C[C@@H]1NC(=O)[C@H](CCN)NC(=O)[C@H](Cc2ccccc2)N(C)C(=O)[C@H](C)N(C)C(=O)[C@H](CCCNC(=N)N)NC(=O)[C@H](Cc2ccc(-c3ccccc3)cc2)NC(=O)[C@H](C(C)C)NC(=O)[C@H](Cc2c[nH]c3ccccc23)NC(=O)[C@H](CC(=O)O)NC(=O)[C@H](Cc2ccc(O)cc2)NC(=O)[C@H](CC(N)=O)NC(=O)CSC[C@@H](C(=O)N[C@@H](C)C(N)=O)NC(=O)[C@H]([C@@H](C)O)NC(=O)[C@H](C(C)C)NC1=O [Example 1320] ({CH2CO}-NYDWV[Bip]R[NMeA][NMeF][Dab]LVTCA-NH2; thioether N-14) | 150
Cc1cccc(C[C@@H]2NC(=O)[C@H](Cc3ccccc3)NC(=O)CSC[C@@H](C(=O)N[C@@H](C)C(N)=O)NC(=O)[C@H](CO)NC(=O)[C@H](C(C)C)NC(=O)[C@H](CC(C)C)NC(=O)[C@H](CC(N)=O)NC(=O)[C@H]3CCCN3C(=O)[C@H](C)N(C)C(=O)[C@H](C(C)C)NC(=O)[C@H](Cc3ccc(-c4ccccc4)cc3)NC(=O)[C@H](CC(C)C)NC(=O)[C@H](Cc3c[nH]c4ccccc34)NC(=O)[C@H](CC(=O)O)NC2=O)c1 [Example 1033] ({CH2CO}-F[Phe(3-Me)]DWL[Bip]V[NMeA][dP]NLVSCA-NH2; thioether N-14) | 60
CC(C)C[C@@H]1NC(=O)[C@H](Cc2c[nH]c3ccccc23)NC(=O)[C@H](CC(=O)O)NC(=O)[C@H](Cc2ccc(O)cc2)NC(=O)[C@H](Cc2ccccc2)NC(=O)CSC[C@@H](C(=O)N[C@@H](C)C(N)=O)NC(=O)[C@H](CO)NC(=O)[C@H](C(C)C)NC(=O)[C@H](CC(C)C)NC(=O)[C@H](CC(N)=O)NC(=O)[C@H]2Cc3ccccc3CN2C(=O)[C@H](C)N(C)C(=O)[C@H](C(C)C)NC(=O)[C@H](Cc2ccc(-c3ccccc3)cc2)NC1=O [Example 1049] ({CH2CO}-FYDWL[Bip]V[NMeA][dTic]NLVSCA-NH2; thioether N-14) | 90
CC(C)C[C@@H]1NC(=O)[C@H](Cc2c[nH]c3ccccc23)NC(=O)[C@H](CC(=O)O)NC(=O)[C@H](Cc2ccc(O)cc2)NC(=O)[C@H](Cc2ccccc2)NC(=O)CSC[C@@H](C(=O)NCC(N)=O)NC(=O)[C@H](CO)NC(=O)[C@H](C(C)C)NC(=O)[C@H](CC(C)C)NC(=O)[C@H](CCC(=O)O)NC(=O)CN(C)C(=O)[C@H](C)N(C)C(=O)[C@H](C(C)C)NC(=O)[C@H](Cc2ccc(-c3ccccc3)cc2)NC1=O [Example 1071] ({CH2CO}-FYDWL[Bip]V[NMeA][Sar]ELVSCG-NH2; thioether N-14) | 190
CC(C)C[C@@H]1NC(=O)[C@H](Cc2c[nH]c3ccccc23)NC(=O)[C@H](CC(=O)O)NC(=O)[C@H](Cc2ccc(O)cc2)NC(=O)[C@H](Cc2ccccc2)NC(=O)CSC[C@@H](C(=O)N[C@@H](C)C(N)=O)NC(=O)[C@H](CO)NC(=O)[C@H](C(C)C)NC(=O)[C@H](CC(C)C)NC(=O)[C@H](CC(N)=O)NC(=O)[C@H]2CCCCN2C(=O)[C@H]2CCCN2C(=O)[C@H](C(C)C)NC(=O)[C@H](Cc2ccc(-c3ccccc3)cc2)NC1=O [Example 1006] ({CH2CO}-FYDWL[Bip]V[dP][dPip]NLVSCA-NH2; thioether N-14) | 40
CC(C)C[C@@H]1NC(=O)[C@H](CCCNC(=N)N)NC(=O)[C@H](Cc2ccccc2)N(C)C(=O)[C@H](C)N(C)C(=O)[C@H](CCC(=O)O)NC(=O)[C@H](Cc2ccc(-c3ccccc3)cc2)NC(=O)[C@H](C(C)C)NC(=O)[C@H](Cc2c[nH]c3ccccc23)NC(=O)[C@H](CC(=O)O)NC(=O)[C@H](Cc2ccc(O)cc2)NC(=O)[C@H](Cc2cnc[nH]2)NC(=O)CSC[C@@H](C(=O)NCC(N)=O)NC(=O)[C@H](CO)NC(=O)[C@H](C(C)C)NC1=O [Example 1288] ({CH2CO}-HYDWV[Bip]E[NMeA][NMeF]RLVSCG-NH2; thioether N-14) | 80
